Laboratory results from article PMC10622841, “Structural analysis of a bacterial UDP-sugar 2-epimerase reveals the active site architecture before and after catalysis” (The Journal of Biological Chemistry, 2023).

Legend:
[1] = molecular target: T1, T. thermophilus 2-epimerase (Thermus thermophilus, UniProt Q72KY0); experiment: X-ray crystallography; format: binding; conditions: active site; formed from UDP-GlcNAc3NAcA during crystallization; pH 5.0 and 9.0; C-terminal His tag
T1 construct: gene TT_C0285; full length, recombinant in E. coli Rosetta2(DE3); tag-free (rTEV-cut N-terminal His tag); homodimer, 82 kDa by gel filtration
T1 sequence (Q72KY0 1-365): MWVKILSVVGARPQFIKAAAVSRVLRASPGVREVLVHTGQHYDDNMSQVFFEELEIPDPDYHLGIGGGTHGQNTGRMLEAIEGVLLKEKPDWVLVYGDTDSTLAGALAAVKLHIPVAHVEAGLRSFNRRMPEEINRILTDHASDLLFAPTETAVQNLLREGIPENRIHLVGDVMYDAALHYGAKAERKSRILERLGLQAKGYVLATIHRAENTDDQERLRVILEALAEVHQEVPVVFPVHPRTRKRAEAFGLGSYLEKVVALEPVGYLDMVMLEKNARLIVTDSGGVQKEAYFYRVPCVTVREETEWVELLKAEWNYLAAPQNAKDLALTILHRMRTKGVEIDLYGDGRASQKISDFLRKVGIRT

[2] = molecular target: T2, T. thermophilus 2-epimerase (Thermus thermophilus, UniProt Q72KY0, D98N); experiment: X-ray crystallography; HPLC and mass spectrometry of copurified ligand; format: binding; conditions: with UDP-GlcNAc3NAcA in the active site, pH 6.0-9.0
T2 construct: gene TT_C0285; full length, recombinant in E. coli Rosetta2(DE3); tag-free (rTEV-cut N-terminal His tag); homodimer, 82 kDa by gel filtration

[3] = molecular target: T1, T. thermophilus 2-epimerase; experiment: discontinuous anion-exchange HPLC assay; format: biochemical; conditions: allosteric activator; substrate UDP-GlcNAc3NAcA, pH 8.0, 37 °C, 44 μM enzyme
[4] = molecular target: T2, T. thermophilus 2-epimerase; experiment: X-ray crystallography; format: binding; conditions: active site; pH 6.0-9.0; C- or N-terminal His tag
[5] = molecular target: T. thermophilus 2-epimerase, WT enzyme, tag-free (Thermus thermophilus HB27); experiment: SEC; gel-filtration chromatography against standards (beta-amylase, acetyl CoA synthase, carbonic anhydrase, cytochrome c); conditions not given

T2 sequence (Q72KY0 entry or part of it D98N): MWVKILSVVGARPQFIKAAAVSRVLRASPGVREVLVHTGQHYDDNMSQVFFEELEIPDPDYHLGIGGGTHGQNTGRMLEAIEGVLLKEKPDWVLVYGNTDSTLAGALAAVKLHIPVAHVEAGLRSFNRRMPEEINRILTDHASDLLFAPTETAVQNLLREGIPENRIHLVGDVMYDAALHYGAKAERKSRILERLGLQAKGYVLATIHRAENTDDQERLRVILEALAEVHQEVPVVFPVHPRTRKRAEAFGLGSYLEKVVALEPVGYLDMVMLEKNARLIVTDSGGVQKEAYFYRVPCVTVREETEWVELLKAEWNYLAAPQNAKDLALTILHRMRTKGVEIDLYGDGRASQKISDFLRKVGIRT

For `CC(=O)N[C@@H]1[C@@H](OP(=O)(O)OP(=O)(O)OC[C@H]2O[C@@H](n3ccc(=O)[nH]c3=O)[C@H](O)[C@@H]2O)O[C@H](C(=O)O)[C@@H](O)[C@@H]1NC(C)=O` [UDP-ManNAc3NAcA], the X-ray crystallography [1] was “the product, namely UDP-ManNAc3NAcA, was observed in each subunit”.

In the case of `CC(=O)N[C@H]1[C@@H](OP(=O)(O)OP(=O)(O)OC[C@H]2O[C@@H](n3ccc(=O)[nH]c3=O)[C@H](O)[C@@H]2O)O[C@H](CO)[C@@H](O)[C@@H]1O` [UDP-GlcNAc], the “X-ray crystallography; HPLC and mass spectrometry of copurified ligand” value ([2]; allosteric pocket) is reported as “UDP-GlcNAc3NAcA in the active site and UDP-GlcNAc in the auxiliary binding pocket” and the “discontinuous anion-exchange HPLC assay” value [3] is reported as “the addition of UDP-GlcNAc was required for the reactions to proceed”.

With `O=c1ccn([C@@H]2O[C@H](COP(=O)(O)OP(=O)(O)O)[C@@H](O)[C@H]2O)c(=O)[nH]1` [UDP] the “X-ray crystallography; HPLC and mass spectrometry of copurified ligand” value ([2]; allosteric (auxiliary) pocket) was “UDP-GlcNAc3NAcA was bound in the active site and UDP in the auxiliary binding pocket”.

In the case of `CC(=O)N[C@H]1[C@@H](OP(=O)(O)OP(=O)(O)OC[C@H]2O[C@@H](n3ccc(=O)[nH]c3=O)[C@H](O)[C@@H]2O)O[C@H](C(=O)O)[C@@H](O)[C@@H]1NC(C)=O` [UDP-GlcNAc3NAcA], the X-ray crystallography [4] is reported as “each subunit of the dimer contained both UDP-GlcNAc3NAcA in the active site and UDP-GlcNAc”.

Compound “T. thermophilus 2-epimerase, WT enzyme, tag-free” has a stoichiometry N [5] of 2.
